Results taken from US20120053196A1, “Combination Treatment of Breast Cancer” (priority 2009, published 2012).

Legend:
ERα+/PR− tumors = settings: follow-up period of 6 years, postmenopausal women; cited from earlier work
[1] = test system: stage II invasive breast cancer; assay: Randomized premenopausal cohort: two years of adjuvant tamoxifen vs control, recurrence free survival (Kaplan-Meier, log-rank) by HMGCR IHC status; assay type: in vivo, human; settings: for outcome of HMGCR positive and ER negative patients vs HMGCR negative and ER positive patients: tamoxifen treated cohort
Text: Between 1984 and 1991, 564 pre-menopausal women with primary breast cancer in the South and Southeast regions of Sweden were enrolled in a multi-centre clinical trial and randomly assigned to either two years of adjuvant tamoxifen (n=276) or a control group (n=288). […] The inclusion criteria were pre-menopausal patients, or patients younger than 50 years, with stage II (pT2 N0 M0, pT1-2 N1 M0) invasive breast cancer treated by modified mastectomy or breast conserving surgery with axillary lymph node dissection. Post-operative radiotherapy (50 Gy) was administered after breastconserving surgery and all lymph node-positive patients received locoregional radiotherapy. […] The study design is described in detail elsewhere (Rydén L et al, Eur J Cancer, 2005, 41(2): 256-64). Ethical permission was obtained from the Local Ethics Committees at Lund and Linköping Universities.
Tissue blocks from 500 of the 564 patients could be retrieved for TMA-construction. All cases had been histopathologically re-evaluated on hematoxylin and eosin stained slides. TMA:s were constructed by sampling 2×0.6 mm cores per case from areas representative of invasive cancer, using an manual arraying device (MTA-1, Beecher Inc, WI, USA). […] IHC staining of ER and PR had been performed previously. In line with current clinical praxis, a cut-off at 10% positive nuclei was used to define hormone receptor positively.
For statistical analyses, the cytoplasmic intensity (CI) level was evaluated, in line with what is described in Examples, Section 3 above. […] Two categories were defined: “HMGCR high” corresponding to CI=weak, moderate and strong and “HMGCR low” corresponding to CI=absent This classification of samples was used for RFS analysis according to the Kaplan-Meier estimator, and the log-rank test was used to compare survival in different strata. ER and PR negativity was defined as<10% positively staining nuclei, according to current clinical guidelines in Sweden. All statistical tests were two-sided, and p-values of<0.05 were considered significant. All calculations were made with the statistical package SPSS 17.0 (SPSS Inc. Illinois, USA).

HMGCR mRNA = assay: qRT-PCR of HMGCR mRNA levels in MCF7 cells after Simvastatin/Tamoxifen treatment; assay type: cell-based; settings: five days, 10 μM Simvastatin or 100 nM Tamoxifen, FIG. 15
Experimental: Total RNA was isolated using the mirVANA™ miRNA Isolation Kit (Ambion) and reverse transcribed using SuperScript II™ Reverse Transcriptase (Invitrogen) according to the manufacturer's instructions. […] Relative HMG-CoAR expression levels in breast cancer cell lines were calculated using the qBase real-time PCR relative quantification software with all samples normalized to 18s rRNA. Negative controls included a no template control and a no reverse transcriptase control. All qRT-PCR reactions were performed in triplicate.

HMGCR = settings: MCF7 cells, five days, 10 μM Simvastatin, 100 nM Tamoxifen, or a combination of both, FIG. 14
ERα = settings: MCF7 cells, five days, 10 μM Simvastatin, 100 nM Tamoxifen, or a combination of both, FIG. 14
breast cancer = settings: 5 years tamoxifen compared to no adjuvant treatment; cited from earlier work
[2] = test system: ERα positive breast cancer; settings: cited from earlier work

Compound: CC(C)(C#N)c1cc(Cn2cncn2)cc(C(C)(C)C#N)c1 [anastrozole]
- recurrence rate compared to patients treated with tamoxifen (ERα+/PR− tumors): halved

Compound: CC/C(=C(\c1ccccc1)c1ccc(OCCN(C)C)cc1)c1ccccc1 [tamoxifen]
- effect on RFS based on the HMGCR level ([1]; ER negative tamoxifen treated subjects, FIG. 7a): positive effect on RFS
- RFS, HMGCR high category vs HMGCR low ([1]; ER positive tamoxifen treated subjects, FIG. 2a): significantly better RFS
- effect of tamoxifen treatment on RFS ([1]; HMGCR negative and ER negative subjects, FIG. 10b): no positive effect
- survival upon tamoxifen treatment vs no adjuvant endocrine treatment ([1]; HMGCR positive and ER negative subjects, FIG. 9a): improved survival
- tamoxifen impact on survival (RFS) ([1]; HMGCR positive and PR negative subjects, FIG. 12, not statistically significant): trend of tamoxifen impact on survival
- effect of tamoxifen treatment on RFS ([1]; HMGCR positive or ER positive subjects, FIG. 10a): significantly positive effect
- response to tamoxifen treatment (RFS) ([1]; PR negative and HMGCR negative subjects, FIG. 11b): no response
- response to tamoxifen treatment (RFS) ([1]; PR positive and HMGCR positive subjects, FIG. 11a): significant response
- RFS associated with HMGCR expression ([1]; lymph node positive patients who received tamoxifen, FIG. 4a): improved RFS
- survival of HMGCR positive subjects ([1]; node negative subgroups treated with tamoxifen, FIGS. 4b and 5b, too few patients for significance): trend of better survival
- outcome of HMGCR positive and ER negative patients vs HMGCR negative and ER positive patients ([1]; node positive subjects, FIG. 6a): better outcome
- recurrence free survival (RFS), HMGCR high category vs HMGCR low category ([1]; patients treated with adjuvant tamoxifen, FIG. 1a): significantly better RFS
- survival upon tamoxifen treatment vs no adjuvant endocrine treatment ([1]; patients with HMGCR high tumors, irrespective of ER status, FIG. 8a): significantly improved survival
- survival upon tamoxifen treatment vs no adjuvant endocrine treatment ([1]; patients with HMGCR low tumors, irrespective of ER status, FIG. 8b): no impact on survival
- outcome of HMGCR positive and ER negative patients vs HMGCR negative and ER positive patients ([1]; FIG. 3a): better outcome
- HMGCR levels of mRNA after treatment (HMGCR mRNA): slight increase
- HMGCR expression (Western blot) (HMGCR): slight HMGCR expression
- ERα expression (Western blot) (ERα): no ERα expression
- reduction in breast cancer specific mortality (breast cancer): 34%
- reduction in disease recurrence (breast cancer): 41%
- fraction of patients who do not respond to tamoxifen treatment [2]: 30-40%
